Patent US20250241876A1, “ANTI-TUMOR COMPOUNDS AND METHODS OF USE THEREOF AND SYNTHESIS THEREOF” (Atossa Therapeutics, Inc., priority 2023, published 2025)

Columns and labels:
Format in all cases: cell-based
MCF7 cells [1] = test: Caspase-3/7 apoptosis assay, MCF7; details: 1.25, 2.5, 5 μM
Text: This example covers anti-invasion, apoptosis, and toxicity assays for various endoxifen-related compounds against multiple cancer cell lines. FIGS. 90A-F are plots that summarize results of proliferation assays for multiple cancer cell lines (MCF7, T47D, UCD4, and UCD12) in the presence of varying doses of endoxifen and multiple endoxifen-related compounds. FIGS. 91A-C are plots that summarize results of wound confluence measurements from scratch wound assays on T47D cells in the presence of 1.25 μM (FIG. 91A), 2.5 μM (FIG. 91B), and 5 μM (FIG. 91C) endoxifen and multiple endoxifen-related compounds. FIGS. 92A-C are plots that summarize results of wound density measurements from scratch wound assays on T47D cells in the presence of 1.25 μM (FIG. 92A), 2.5 μM (FIG. 92B), and 5 μM (FIG. 92C) endoxifen and multiple endoxifen-related compounds. FIGS. 93A-C are plots that summarize results of wound confluence measurements from scratch wound assays on MCF7 cells in the presence of 1.25 μM (FIG. 93A), 2.5 μM (FIG. 93B), and 5 μM (FIG. 93C) endoxifen and multiple endoxifen-related compounds. FIGS. 94A-C are plots that summarize results of wound density measurements from scratch wound assays on MCF7 cells in the presence of 1.25 μM (FIG. 94A), 2.5 μM (FIG. 94B), and 5 μM (FIG. 94C) endoxifen and multiple endoxifen-related compounds. […]

MCF7 cells [2] = test: Apoptosis induction, MCF7, Example 29; details: 1-5 μM; p<0.0001 vs. vehicle; p<0.0001 vs. (Z)-endoxifen
T47D cancer cells = test: Cell cycle progression assay; details: higher concentration (2.5, 5 μM)
Method: This example covers cell cycle progression assays with endoxifen and multiple endoxifen-related compounds on T47D cancer cells. FIGS. 63A-G are plots that show absolute cell counts for cells in different cell cycle phases (G1 through S; G1; and S, G2, and M) following treatment with vehicle (DMSO) or 1.25 μM endoxifen, Compound 7b, Compound 7a, Compound 5b, Compound 5a, and Compound 3, respectively. FIGS. 64A-G are plots that show percent cell counts for cells in different cell cycle phases following treatment with vehicle or 1.25 μM endoxifen, Compound 7b, Compound 7a, Compound 5b, Compound 5a, and Compound 3, respectively. FIGS. 65A-G are plots that show absolute cell counts for cells in different cell cycle phases following treatment with vehicle or 2.5 μM endoxifen, Compound 7b, Compound 7a, Compound 5b, Compound 5a, and Compound 3, respectively. FIGS. 66A-G are plots that show percent cell counts for cells in different cell cycle phases following treatment with vehicle or 2.5 μM endoxifen, Compound 7b, Compound 7a, Compound 5b, Compound 5a, and Compound 3, respectively. FIGS. 67A-G are plots that show absolute cell counts for cells in different cell cycle phases following treatment with vehicle or 5 μM endoxifen, Compound 7b, Compound 7a, Compound 5b, Compound 5a, and Compound 3, respectively. […]

T47D cells [3] = test: 2D culture proliferation, T47D
Text: (§1) Approximately 80% of breast cancers express estrogen receptor alpha (ERα, ESR1) which drives cancer progression. […] (Z)-Endoxifen (ENDX), an active metabolite of tamoxifen, is a potent orally bioavailable selective estrogen receptor modulator with a favorable safety profile now under development for breast health applications. Its synthesis yields endoxifen-related byproduct new chemical entities (NCE), including Compound 7b, Compound 7a, Compound 5b and Compound 5a. This study compared the anti-estrogenic effects of these compounds to (Z)-endoxifen in ERα+ breast cancer cell lines (MCF7, T47D, UCD12), including those with ESR1 mutations (Y537S, D538G) linked to endocrine resistance.

[4] = system: ERα+ breast cancer cell lines; test: Cell cycle arrest, Example 29
Text: as §1

T47D cells [5] = test: Crystal violet cell viability assay, T47D
Method: This example covers the cell toxicities of endoxifen and various endoxifen-related compounds. The toxicities of these compounds were measured using crystal violet cell viabilities assays per the protocols outlined in Feoktistova et al., Cold Spring Harb Protoc., 2016; 4 (PMID: 27037069). This assay utilizes crystal violet, which is a triarylmethane dye that binds to ribose type molecules such as DNA in nuclei. The amount of crystal violet staining is proportional to the cell biomass that is attached to the plate and thus this cell biomass can be used to infer levels of cell viability and cytotoxicity in control/experimental conditions. […]
FIGS. 34-39 summarize crystal violet assays with endoxifen (top-left plot in each figure), Compound 7b (top-middle plot in each figure), Compound 7a (top-right plot in each figure), Compound 5b (bottom-left plot in each figure), Compound 5a (bottom-middle plot in each figure), and Compound 3 (bottom-right plot in each figure). Each individual plot provides normalized absorbance (corresponding to cell concentration) over 25 nM to 5 μM concentration ranges, with the rightmost entry in each plot corresponding to vehicle treatment. […]

[6] = system: estrogen-induced and ERα-mediated activation of an estrogen response element (ERE) luciferase reporter construct in ER+ T47D cells; test: Luciferase (ERE reporter) agonist/antagonist assay, ER+ cells
[7] = system: ERα+ breast cancer cell lines in 3D cultures; test: 3D culture cancer cell proliferation; details: ~1 μM
Text: as §1

UCD12 cells = test: 2D culture proliferation, UCD12; details: for anti-proliferative activity compared with (Z)-endoxifen: estrogen-deficient conditions
Text: as §1

T47D cells [8] = test: Apoptosis induction, T47D, Example 29; details: p<0.0001 vs. vehicle
[9] = system: ERα+ breast cancer cell lines; test: RT-qPCR analysis; details: 0.1 μM
[10] = 2D cultures, estrogen-containing media

Structure (SMILES) | potency at inducing the apoptosis of MCF7 cells (MCF7 cells [1]) | apoptosis induction in MCF7 cells (MCF7 cells [2]) | cell cycle inhibition compared with endoxifen (T47D cancer cells) | anti-proliferative effect, ranking (T47D cells [3]; [10]) | G1 cell cycle arrest [4] | activity against T47D cells compared with endoxifen (T47D cells [5]; micromolar concentrations (FIG. 41)) | activity against T47D cells compared with endoxifen (T47D cells [5]; sub-100 nanomolar concentrations (FIG. 41)) | agonist or antagonist behavior (luciferase assay) ([6]; T47D cell lines, FIGS. 72-74) | potency in 3D cultures, ranking [7] | anti-proliferative activity compared with (Z)-endoxifen (UCD12 cells) | anti-proliferative activity compared with (Z)-endoxifen (T47D cells [3]; estrogen-deficient conditions) | apoptosis induction in T47D cells (T47D cells [8]) | anti-proliferative effects in ER+ cells compared with endoxifen ([6]; CSS+E2 media) | RT-qPCR analysis, potency ranking [9] | anti-proliferative effect, ranking (UCD12 cells; [10])
CC/C(=C(/c1ccc(O)cc1)c1ccc(OCC[N+](C)(C)C)cc1)c1ccccc1 [Compound 5b] | equal potencies | surpassing (Z)-endoxifen | slightly lower cell cycle inhibition activity than endoxifen |  |  |  |  |  |  |  |  |  |  |  | 
CC/C(=C(\c1ccc(O)cc1)c1ccc(OCC[N+](C)(C)C)cc1)c1ccccc1 [Compound 5a] | equal potencies | surpassing (Z)-endoxifen | slightly lower cell cycle inhibition activity than endoxifen | strongest effects | most effective | greater activity than endoxifen | lower activity against T47D cells than endoxifen | strong antagonistic behavior | comparable, superior potency | more effective |  |  |  |  | 
CC/C(=C(\c1ccc(O)cc1)c1ccc(OCCN(C)C(C)=O)cc1)c1ccccc1 [Compound 7a] |  | surpassing (Z)-endoxifen |  |  |  |  |  |  |  | more effective | more effective | significantly induced | closely resemble that of endoxifen | most potent | strongest effects
